Source: the supplement of paper PMC4862054

Assays:
Test in all cases: normalised response (% of control), CellTiter-Glo; higher = more viable cells (100 = DMSO, 0 = benzethonium chloride kill control)
Conditions in all cases: incubation time: 72 h
SK-BR-3 [1] = system: SK-BR-3
Procedure: (§1)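 DSRT, 72 h incubation, CellTox Green / CellTiter-Glo readout. Signal is normalised to DMSO and benzethonium chloride controls. Value is the normalised response at the highest dose.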

HCC1937 = system: HCC1937
Procedure: as §1

DU-4475 [2] = system: DU-4475
Procedure: as §1

CAL-148 [3] = system: CAL-148
Procedure: as §1

Hs578T = system: Hs578T
How it was run: (§2)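 Each entry is the normalised signal at a single concentration within a series. The series comprised 5 concentrations in 10-fold steps over a compound-specific 10,000-fold range, placed in 384-well plates into which breast cancer cell lines were seeded as 20 µl suspension and incubated 72 h. CellTox Green (485/520 nm) fluorescence and then CellTiter-Glo luminescence were read, with signals normalised per plate to 0.1 % DMSO (100) and a positive kill control (0).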

CAL-85-1 = system: CAL-85-1
How it was run: as §2

HCC1599 = system: HCC1599
How it was run: as §2

CAL-120 = system: CAL-120
How it was run: as §2

HCC1143 = system: HCC1143
How it was run: as §2

MDA-MB-453 = system: MDA-MB-453
How it was run: as §2

SK-BR-3 [4] = system: SK-BR-3; remark: listed apart in the source
How it was run: as §2

HDQ-P1 = system: HDQ-P1
How it was run: as §2

DU-4475 [5] = system: DU-4475; remark: listed apart in the source
How it was run: as §2

MDA-MB-436 = system: MDA-MB-436
How it was run: as §2

CAL-148 [6] = system: CAL-148; remark: listed apart in the source
How it was run: as §2

MFM-223 = system: MFM-223
How it was run: as §2

MCF-10A = system: MCF-10A
How it was run: as §2

MDA-MB-468 = system: MDA-MB-468
How it was run: as §2

`C[C@]12O[C@H](C[C@]1(O)CO)n1c3ccccc3c3c4c(c5c6ccccc6n2c5c31)CNC4=O` [Lestaurtinib] (1000 nM) showed a normalised response (SK-BR-3 [1]) of 29.1%, a normalised response (HCC1937) of 56% and a normalised response (DU-4475 [2]) of 5.65%. It also gave a normalised response (CAL-148 [3]) of 99.6%.

Compound `O=C1c2c(O)ccc(O)c2C(=O)c2c(NCCNCCO)ccc(NCCNCCO)c21` [Mitoxantrone] (100 nM) has a normalised response (Hs578T) of 104%, a normalised response (CAL-85-1) of 101% and a normalised response (HCC1599) of 120%. The normalised response (CAL-120) was 34.6%, the normalised response (HCC1143) was 96% and the normalised response (MDA-MB-453) was 107%. For the same compound, the normalised response (SK-BR-3 [4]) was 99.2%, the normalised response (HDQ-P1) was 96.4% and the normalised response (DU-4475 [5]) was 86.2%. It also gave a normalised response (MDA-MB-436) of 69.8%, a normalised response (CAL-148 [6]) of 85.6% and a normalised response (MFM-223) of 99.7%. For the same compound, the normalised response (MCF-10A) was 96.2% and the normalised response (MDA-MB-468) was 92.4%.

For `O=C1c2c(O)ccc(O)c2C(=O)c2c(NCCNCCO)ccc(NCCNCCO)c21` [Mitoxantrone] (1000 nM), the normalised response (SK-BR-3 [1]) was 56.2%, the normalised response (HCC1937) was 87.4% and the normalised response (DU-4475 [2]) was 49.5%. For the same compound, the normalised response (CAL-148 [3]) was 40.4%.

For `Nc1ccccc1NC(=O)c1ccc(CNc2nccc(-c3cccnc3)n2)cc1` [Mocetinostat] (1000 nM), the normalised response (Hs578T) was 74%, the normalised response (CAL-85-1) was 87.9% and the normalised response (HCC1599) was 81.2%. For the same compound, the normalised response (CAL-120) was 83.8%, the normalised response (HCC1143) was 91% and the normalised response (MDA-MB-453) was 62.8%. The normalised response (SK-BR-3 [4]) was 78%, the normalised response (HDQ-P1) was 80.8% and the normalised response (DU-4475 [5]) was 76.3%. For the same compound, the normalised response (MDA-MB-436) was 78.2%, the normalised response (CAL-148 [6]) was 77% and the normalised response (MFM-223) was 77%. It also gave a normalised response (MCF-10A) of 140% and a normalised response (MDA-MB-468) of 72%.

`Nc1ccccc1NC(=O)c1ccc(CNc2nccc(-c3cccnc3)n2)cc1` [Mocetinostat] (10000 nM) was tested, and the normalised response (SK-BR-3 [1]) was 1.68%, the normalised response (HCC1937) was 49.8% and the normalised response (DU-4475 [2]) was 4.3%. For the same compound, the normalised response (CAL-148 [3]) was 12.2%.

In the case of `COc1nc(N)nc2c1ncn2[C@@H]1O[C@H](CO)[C@@H](O)[C@@H]1O` [Nelarabine] (1000 nM), the normalised response (Hs578T) is reported as 98.7%, the normalised response (CAL-85-1) is reported as 99.1% and the normalised response (HCC1599) is reported as 113%. For the same compound, the normalised response (CAL-120) was 98.7%, the normalised response (HCC1143) was 89.3% and the normalised response (MDA-MB-453) was 87.3%. The normalised response (SK-BR-3 [4]) was 80.7%, the normalised response (HDQ-P1) was 96.7% and the normalised response (DU-4475 [5]) was 91.3%. It also gave a normalised response (MDA-MB-436) of 92.1%, a normalised response (CAL-148 [6]) of 85.6% and a normalised response (MFM-223) of 88.3%. For the same compound, the normalised response (MCF-10A) was 82.8% and the normalised response (MDA-MB-468) was 92.1%.

In the case of `Cc1ccc(Nc2nccc(N(C)c3ccc4c(C)n(C)nc4c3)n2)cc1S(N)(=O)=O` [Pazopanib] (1000 nM), the normalised response (Hs578T) is reported as 95.6%, the normalised response (CAL-85-1) is reported as 101% and the normalised response (HCC1599) is reported as 106%. For the same compound, the normalised response (CAL-120) was 87.3%, the normalised response (HCC1143) was 106% and the normalised response (MDA-MB-453) was 113%. For the same compound, the normalised response (SK-BR-3 [4]) was 102%, the normalised response (HDQ-P1) was 100% and the normalised response (DU-4475 [5]) was 104%. The normalised response (MDA-MB-436) was 103%, the normalised response (CAL-148 [6]) was 98.6% and the normalised response (MFM-223) was 66.6%. It also gave a normalised response (MCF-10A) of 92.5% and a normalised response (MDA-MB-468) of 103%.

Compound `O=C(CCBr)N1CCN(C(=O)CCBr)CC1` [Pipobroman] (1000 nM) has a normalised response (Hs578T) of 108%, a normalised response (CAL-85-1) of 105% and a normalised response (HCC1599) of 109%. It also gave a normalised response (CAL-120) of 99.3%, a normalised response (HCC1143) of 112% and a normalised response (MDA-MB-453) of 101%. For the same compound, the normalised response (SK-BR-3 [4]) was 106%, the normalised response (HDQ-P1) was 97.2% and the normalised response (DU-4475 [5]) was 95.8%. The normalised response (MDA-MB-436) was 96.6%, the normalised response (CAL-148 [6]) was 101% and the normalised response (MFM-223) was 104%. For the same compound, the normalised response (MCF-10A) was 97% and the normalised response (MDA-MB-468) was 99.6%.

Compound `C[C@]12C=CC(=O)C=C1CC[C@@H]1[C@@H]2[C@@H](O)C[C@@]2(C)[C@H]1CC[C@]2(O)C(=O)CO` [Prednisolone] (1000 nM) has a normalised response (Hs578T) of 113%, a normalised response (CAL-85-1) of 113% and a normalised response (HCC1599) of 109%. For the same compound, the normalised response (CAL-120) was 75.2%, the normalised response (HCC1143) was 102% and the normalised response (MDA-MB-453) was 98.1%. The normalised response (SK-BR-3 [4]) was 90.3%, the normalised response (HDQ-P1) was 85.8% and the normalised response (DU-4475 [5]) was 101%. It also gave a normalised response (MDA-MB-436) of 99.7%, a normalised response (CAL-148 [6]) of 102% and a normalised response (MFM-223) of 106%. For the same compound, the normalised response (MCF-10A) was 101% and the normalised response (MDA-MB-468) was 121%.

`CNC(=O)c1cc(Oc2ccc(NC(=O)Nc3ccc(Cl)c(C(F)(F)F)c3)cc2)ccn1` [Sorafenib] (100 nM) gave a normalised response (Hs578T) of 90.6%, a normalised response (CAL-85-1) of 107% and a normalised response (HCC1599) of 98.7%. For the same compound, the normalised response (CAL-120) was 111%, the normalised response (HCC1143) was 105% and the normalised response (MDA-MB-453) was 90.5%. The normalised response (SK-BR-3 [4]) was 104%, the normalised response (HDQ-P1) was 103% and the normalised response (DU-4475 [5]) was 105%. It also gave a normalised response (MDA-MB-436) of 109%, a normalised response (CAL-148 [6]) of 110% and a normalised response (MFM-223) of 104%. It also gave a normalised response (MCF-10A) of 122% and a normalised response (MDA-MB-468) of 117%.

`CCN(CC)CCNC(=O)c1c(C)[nH]c(/C=C2\C(=O)Nc3ccc(F)cc32)c1C` [Sunitinib] (100 nM) gave a normalised response (Hs578T) of 102%, a normalised response (CAL-85-1) of 104% and a normalised response (HCC1599) of 107%. The normalised response (CAL-120) was 103%, the normalised response (HCC1143) was 108% and the normalised response (MDA-MB-453) was 92%. It also gave a normalised response (SK-BR-3 [4]) of 112%, a normalised response (HDQ-P1) of 101% and a normalised response (DU-4475 [5]) of 99.7%. It also gave a normalised response (MDA-MB-436) of 105%, a normalised response (CAL-148 [6]) of 104% and a normalised response (MFM-223) of 107%. It also gave a normalised response (MCF-10A) of 95.5% and a normalised response (MDA-MB-468) of 108%.

`CC[C@@]1(O)C(=O)OCc2c1cc1n(c2=O)Cc2cc3c(CN(C)C)c(O)ccc3nc2-1` [Topotecan] (1000 nM) showed a normalised response (Hs578T) of 99.1%, a normalised response (CAL-85-1) of 50.1% and a normalised response (HCC1599) of 24.1%. It also gave a normalised response (CAL-120) of 75.6%, a normalised response (HCC1143) of 55.1% and a normalised response (MDA-MB-453) of 87.6%. For the same compound, the normalised response (SK-BR-3 [4]) was 47.6%, the normalised response (HDQ-P1) was 86.9% and the normalised response (DU-4475 [5]) was 38.4%. The normalised response (MDA-MB-436) was 42.6%, the normalised response (CAL-148 [6]) was 24.3% and the normalised response (MFM-223) was 91.4%. For the same compound, the normalised response (MCF-10A) was 79.2% and the normalised response (MDA-MB-468) was 11.1%.
